Here are results for 16 compounds from ChEMBL document CHEMBL1649108, “Discovery of AMG 369, a Thiazolo[5,4-b]pyridine Agonist of S1P1 and S1P5” (ACS Med Chem Lett, 2011).

Data set [1] addresses T1, Sphingosine 1-phosphate receptor 1 (Homo sapiens, UniProt P21453). As to the kind of experiment: Induction of human GFP-tagged chimeric S1P1R internalization in human U2Os cells by fluorescence microscopy relative to 1-(4-(6-benzylbenzofuran-2-yl)-3-fluorobenzyl)azetidine-3-carboxylic acid. Format: cell-based.
Data set [2] addresses T1, Sphingosine 1-phosphate receptor 1. The data set can be described thus: Induction of human GFP-tagged chimeric S1P1R internalization in human U2Os cells by fluorescence microscopy. In kind it is cell-based.
For data set [3], the target named is T2, Sphingosine 1-phosphate receptor 3 (Homo sapiens, UniProt Q99500). As to the kind of experiment: Agonist activity at human S1P3R expressed in CHO cells at 2.5 uM by Ca(2+) mobilization assay relative to S1P. In kind it is functional, cell-based.
Data set [4] deals with T2, Sphingosine 1-phosphate receptor 3. The data set can be described thus: Agonist activity at human S1P3R expressed in CHO cells by Ca(2+) mobilization assay relative to S1P. In kind it is functional, cell-based. Set-up: concentration or dose not given beside the values.
The target is the same in data set [5]. As to the kind of experiment: Agonist activity at human S1P3R expressed in CHO cells by Ca(2+) mobilization assay. Format: functional, cell-based.
Data set [6] deals with Rattus norvegicus. The data set can be described thus: Lymphopenic activity in Lewis rat assessed as reduction in blood lymphocyte counts at 1 mg/kg, po administered as single dose measured 24 hrs post dose. Format: functional, organism-based. Set-up: dose 1 mg/kg.
Data set [7] is described as follows: Oral bioavailability in cynomolgus monkey 1 mg/kg. The settings on record: in vivo. In kind it is ADME, organism-based, Macaca fascicularis.
Data set [8] has as its system Rattus norvegicus. The data set can be described thus: Lymphopenic activity in Lewis rat assessed as reduction in blood lymphocyte counts at 0.03 mg/kg, po administered as single dose measured 24 hrs post dose. In kind it is functional.
A short description of data set [9]: Clearance in Beagle dog at 1 mg/kg, iv or 1 mg/kg, po. In kind it is ADME, organism-based, Canis lupus familiaris. The settings on record: in vivo.
Data set [10] relates to Rattus norvegicus. The data set can be described thus: Lymphopenic activity in Lewis rat assessed as reduction in blood lymphocyte counts at 0.1 mg/kg, po administered as single dose measured 24 hrs post dose. In kind it is functional.
In data set [11] the test system is Rattus norvegicus. As to the kind of experiment: Lymphopenic activity in orally dosed Lewis rat assessed as reduction in blood lymphocyte counts measured 24 hrs post dose. Format: functional, organism-based.
A short description of data set [12]: Volume of distribution at steady state in Beagle dog at 1 mg/kg, iv or 1 mg/kg, po. The settings on record: in vivo, read-out: Vdss. In kind it is ADME, organism-based, Canis lupus familiaris.
Data set [13] is described as follows: Half life in Beagle dog at 1 mg/kg, iv or 1 mg/kg, po. Format: ADME, organism-based, Canis lupus familiaris. The settings on record: in vivo.
For data set [14], the system named is Rattus norvegicus. The data set can be described thus: Reduction of disease score in experimental autoimmune encephalitis Lewis rat model of multiple sclerosis at 20 ug/day, po administered at the time of immunization with guinea pig myelin basic protein.
Data set [15] can be described thus: Oral bioavailability in Beagle dog 1 mg/kg. Format: ADME, organism-based, Canis lupus familiaris. Conditions: in vivo.
For data set [16], the target named is Voltage-gated inwardly rectifying potassium channel KCNH2 (Homo sapiens, UniProt Q12809). As to the kind of experiment: Inhibition of human ERG at 2.3 uM by patch-clamp method.
Data set [17] has as its target T3, Sphingosine 1-phosphate receptor 5 (Homo sapiens, UniProt Q9H228). As to the kind of experiment: Agonist activity at human S1P5R expressed in CHO cells by Ca(2+) mobilization assay. In kind it is functional, cell-based.
Data set [18] can be described thus: Mean residence time in Beagle dog at 1 mg/kg, iv or 1 mg/kg, po. The settings on record: in vivo. In kind it is ADME, organism-based, Canis lupus familiaris.
In data set [19] the target is Sphingosine 1-phosphate receptor 2 (Homo sapiens) (UniProt O95136). The data set can be described thus: Agonist activity at human S1P2R expressed in CHO cells by Ca(2+) mobilization assay. Format: functional, cell-based.
The nature of data set [20]: Mutagenic activity in Salmonella Typhimurium by Ames assay. In kind it is toxicity. Conditions: salmonella enterica subsp. enterica serovar typhimurium.
Data set [21] can be described thus: Clearance in cynomolgus monkey at 1 mg/kg, iv or 1 mg/kg, po. Conditions: in vivo. In kind it is ADME, organism-based, Macaca fascicularis.
Data set [22] is described as follows: Volume of distribution at steady state in cynomolgus monkey at 1 mg/kg, iv or 1 mg/kg, po. In kind it is ADME, organism-based, Macaca fascicularis. The settings on record: in vivo, read-out: Vdss.
Data set [23] in a line: Mean residence time in Sprague-Dawley rat at 1 mg/kg, iv or 2 mg/kg, po. Conditions: in vivo. Format: ADME, organism-based.
In data set [24] the test system is Rattus norvegicus. The data set can be described thus: Toxicity in telemetered Sprague-Dawley rat assessed as effect on heart rate at 10 mg/kg, po. In kind it is organism-based. Set-up: dose 10 mg/kg, route oral. Conditions: in vivo.
The test system of data set [25] is Rattus norvegicus. The data set can be described thus: Toxicity in telemetered Sprague-Dawley rat assessed as change in mean arterial pressure at 10 mg/kg, po. The settings on record: in vivo. Set-up: dose 10 mg/kg, route oral. In kind it is organism-based, Artery.
Data set [26] deals with T4, Sphingosine 1-phosphate receptor 4 (Homo sapiens) (UniProt O95977).
T4 sequence (whole entry): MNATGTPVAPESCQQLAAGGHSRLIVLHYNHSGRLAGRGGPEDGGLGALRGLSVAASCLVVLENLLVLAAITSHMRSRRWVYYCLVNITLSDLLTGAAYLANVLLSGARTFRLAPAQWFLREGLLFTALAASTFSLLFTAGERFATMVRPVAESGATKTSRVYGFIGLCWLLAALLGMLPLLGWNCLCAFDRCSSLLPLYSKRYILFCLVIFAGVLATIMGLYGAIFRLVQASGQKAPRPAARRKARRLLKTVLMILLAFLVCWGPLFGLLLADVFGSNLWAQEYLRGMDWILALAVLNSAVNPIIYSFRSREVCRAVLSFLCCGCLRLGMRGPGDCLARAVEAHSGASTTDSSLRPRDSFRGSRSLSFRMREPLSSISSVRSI
The data set can be described thus: Agonist activity at human S1P4R expressed in CHO cells by Ca(2+) mobilization assay. Format: functional, cell-based.

A short description of data set [27]: Volume of distribution at steady state in Sprague-Dawley rat at 1 mg/kg, iv or 2 mg/kg, po. Format: ADME, organism-based. The settings on record: in vivo, read-out: Vdss.
In data set [28] the test system is Rattus norvegicus. As to the kind of experiment: Reduction of disease score in experimental autoimmune encephalitis Lewis rat model of multiple sclerosis at 2 ug/day, po administered at the time of immunization with guinea pig myelin basic protein.
Data set [29] addresses T3, Sphingosine 1-phosphate receptor 5. As to the kind of experiment: Agonist activity at human S1P5R expressed in CHO cells by Ca(2+) mobilization assay relative to control. In kind it is functional, cell-based.
The nature of data set [30]: Mean residence time in cynomolgus monkey at 1 mg/kg, iv or 1 mg/kg, po. In kind it is ADME, organism-based, Macaca fascicularis. Conditions: in vivo.
Data set [31] in a line: Oral bioavailability in Sprague-Dawley rat 2 mg/kg. In kind it is ADME, organism-based. Conditions: in vivo.
A short description of data set [32]: Clearance in Sprague-Dawley rat at 1 mg/kg, iv or 2 mg/kg, po. In kind it is ADME, organism-based. The settings on record: in vivo.
Data set [33] has as its system Rattus norvegicus. The data set can be described thus: Induction of delay in onset of disease in experimental autoimmune encephalitis Lewis rat model of multiple sclerosis at 20 ug/day, po administered at the time of immunization with guinea pig myelin basic protein.
A short description of data set [34]: Inhibition of Cytochrome P450. Format: ADME.
Data set [35] is described as follows: Half life in cynomolgus monkey at 1 mg/kg, iv or 1 mg/kg, po. Conditions: in vivo. In kind it is ADME, organism-based, Macaca fascicularis.
Data set [36] can be described thus: Half life in Sprague-Dawley rat at 1 mg/kg, iv or 2 mg/kg, po. In kind it is ADME, organism-based. The settings on record: in vivo.

Active and inactive are the calls of the source. The rule behind the calls is not given here. Some results are limits rather than exact numbers.

T1 sequence (P21453 whole entry): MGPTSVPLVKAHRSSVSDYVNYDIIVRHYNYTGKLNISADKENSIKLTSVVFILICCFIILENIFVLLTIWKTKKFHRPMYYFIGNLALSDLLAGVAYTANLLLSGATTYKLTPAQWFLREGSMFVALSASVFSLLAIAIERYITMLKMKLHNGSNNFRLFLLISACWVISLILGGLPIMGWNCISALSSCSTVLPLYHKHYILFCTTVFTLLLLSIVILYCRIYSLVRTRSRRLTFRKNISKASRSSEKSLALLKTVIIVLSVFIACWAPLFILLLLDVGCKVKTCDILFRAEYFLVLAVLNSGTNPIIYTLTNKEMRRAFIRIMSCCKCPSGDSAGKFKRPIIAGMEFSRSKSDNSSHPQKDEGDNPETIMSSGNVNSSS
T2 sequence (Q99500 whole entry): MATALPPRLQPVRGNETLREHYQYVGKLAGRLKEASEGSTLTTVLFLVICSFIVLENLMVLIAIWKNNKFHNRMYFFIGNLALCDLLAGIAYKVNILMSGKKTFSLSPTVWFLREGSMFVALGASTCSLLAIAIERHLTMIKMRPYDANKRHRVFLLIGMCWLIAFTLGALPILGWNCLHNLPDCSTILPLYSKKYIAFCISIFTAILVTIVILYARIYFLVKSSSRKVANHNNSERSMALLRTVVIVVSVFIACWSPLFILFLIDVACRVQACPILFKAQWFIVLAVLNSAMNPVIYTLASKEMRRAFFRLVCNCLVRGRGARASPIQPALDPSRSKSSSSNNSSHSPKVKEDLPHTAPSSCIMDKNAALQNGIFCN
T3 sequence (Q9H228 whole entry): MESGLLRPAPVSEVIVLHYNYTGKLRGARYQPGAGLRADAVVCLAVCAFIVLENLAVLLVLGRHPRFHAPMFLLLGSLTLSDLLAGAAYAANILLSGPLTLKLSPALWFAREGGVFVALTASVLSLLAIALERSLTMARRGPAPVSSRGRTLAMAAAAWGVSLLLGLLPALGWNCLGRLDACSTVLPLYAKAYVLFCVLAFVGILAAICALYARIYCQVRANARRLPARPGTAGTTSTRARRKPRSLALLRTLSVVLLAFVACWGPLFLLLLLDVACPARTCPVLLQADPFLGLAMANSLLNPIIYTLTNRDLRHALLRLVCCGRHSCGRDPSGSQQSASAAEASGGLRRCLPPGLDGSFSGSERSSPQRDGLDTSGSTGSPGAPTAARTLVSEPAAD
Chain of Sphingosine 1-phosphate receptor 2 (Homo sapiens) (O95136 whole entry): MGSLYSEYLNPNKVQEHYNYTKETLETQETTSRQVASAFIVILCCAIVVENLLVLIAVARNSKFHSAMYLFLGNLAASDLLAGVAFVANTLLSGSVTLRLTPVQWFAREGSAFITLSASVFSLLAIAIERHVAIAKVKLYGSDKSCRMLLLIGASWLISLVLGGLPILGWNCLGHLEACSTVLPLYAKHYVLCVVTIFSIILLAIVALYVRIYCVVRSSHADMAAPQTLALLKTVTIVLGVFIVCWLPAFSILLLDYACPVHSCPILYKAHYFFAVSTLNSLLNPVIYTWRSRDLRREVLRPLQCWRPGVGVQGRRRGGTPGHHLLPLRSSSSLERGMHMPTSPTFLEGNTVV
Chain of Voltage-gated inwardly rectifying potassium channel KCNH2 (Q12809 whole entry): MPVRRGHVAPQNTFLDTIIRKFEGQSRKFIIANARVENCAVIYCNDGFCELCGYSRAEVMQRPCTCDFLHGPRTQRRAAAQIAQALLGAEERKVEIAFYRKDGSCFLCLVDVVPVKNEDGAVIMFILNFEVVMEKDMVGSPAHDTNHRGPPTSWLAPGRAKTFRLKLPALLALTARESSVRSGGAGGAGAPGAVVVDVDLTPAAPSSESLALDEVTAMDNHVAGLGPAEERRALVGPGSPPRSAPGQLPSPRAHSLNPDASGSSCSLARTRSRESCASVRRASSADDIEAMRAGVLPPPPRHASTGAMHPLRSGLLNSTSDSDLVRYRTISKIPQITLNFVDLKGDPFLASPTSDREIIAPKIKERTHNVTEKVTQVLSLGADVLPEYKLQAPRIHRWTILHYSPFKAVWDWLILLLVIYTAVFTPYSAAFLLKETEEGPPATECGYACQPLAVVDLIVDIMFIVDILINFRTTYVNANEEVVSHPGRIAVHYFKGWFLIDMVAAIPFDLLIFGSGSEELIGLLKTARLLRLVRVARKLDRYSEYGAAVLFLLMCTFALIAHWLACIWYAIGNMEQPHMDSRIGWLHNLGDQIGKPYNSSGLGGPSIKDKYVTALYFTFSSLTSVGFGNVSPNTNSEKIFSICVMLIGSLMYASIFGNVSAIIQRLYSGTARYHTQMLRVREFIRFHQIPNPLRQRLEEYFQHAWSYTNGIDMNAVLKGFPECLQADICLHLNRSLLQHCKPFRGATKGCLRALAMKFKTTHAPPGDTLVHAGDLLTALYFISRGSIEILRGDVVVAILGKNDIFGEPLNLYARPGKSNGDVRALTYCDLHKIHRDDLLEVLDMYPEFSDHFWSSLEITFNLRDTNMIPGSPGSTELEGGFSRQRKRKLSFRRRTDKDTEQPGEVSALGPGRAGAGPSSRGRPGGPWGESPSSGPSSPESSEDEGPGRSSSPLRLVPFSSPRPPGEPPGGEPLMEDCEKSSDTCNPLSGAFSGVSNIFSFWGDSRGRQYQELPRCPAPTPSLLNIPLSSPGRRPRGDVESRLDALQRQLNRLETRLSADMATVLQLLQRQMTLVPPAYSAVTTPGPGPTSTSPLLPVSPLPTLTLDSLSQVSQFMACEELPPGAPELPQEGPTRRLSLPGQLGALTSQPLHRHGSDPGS

With `O=C(O)C1CN(Cc2ccc(-c3nc4ccc(C5(c6ccccc6)CCCC5)nc4s3)c(F)c2)C1`, the results for the Efficacy in data set [1] and in [3] were 76% and 12%, respectively. Further, the EC50 in [2] worked out at 26 nM.
Compound `O=C(O)C1CN(Cc2ccc(-c3nc4cc(Cc5ccccc5)cnc4s3)c(F)c2)C1` returned an Efficacy in data set [1] of 125%. The compound further registered an Activity in data set [4] of 36%. For the same compound, the EC50 worked out at 2890 nM in [5] and 138 nM in [2].
As to `O=C(O)C1CN(Cc2ccc(-c3nc4ccc(C5(c6ccccc6)CCCCC5)nc4s3)c(F)c2)C1`, the Efficacy in data set [1] worked out at 108%. The Activity in data set [4] was determined as 41%. Also, the EC50 is 836 nM in [5] and 33 nM in data set [2].
`C[C@@H](c1ccccc1)c1ccc2nc(-c3ccc(CN4CC(C(=O)O)C4)cc3F)sc2n1` came in with an Efficacy in [1] of 99%. In [4], the Activity was 44%. The concentration giving a half-maximal response (EC50) amounted to 877 nM in data set [5] and 35 nM in data set [2].
The corresponding values for `O=C(O)C1CN(Cc2ccc(-c3nc4ccc(C5(c6ccccc6)CCC5)nc4s3)c(F)c2)C1` are 124%, 68%, 1310 nM and 119 nM.
The matching figures for `CC(C)(c1ccccc1)c1ccc2nc(-c3ccc(CN4CC(C(=O)O)C4)cc3F)sc2n1`: 103%, 64%, 2510 nM and 33 nM.
The matching figures for `O=C(O)C1CN(Cc2ccc(-c3nc4nc(Cc5ccccc5)ccc4s3)c(F)c2)C1`: 106%, 63%, 10100 nM and 144 nM.
On to `O=C(O)C1CN(Cc2ccc(-c3nc4cc(Cc5ccccc5)ccc4s3)c(F)c2)C1`, for which the Efficacy in data set [1] stood at 102%. In addition, the Activity in data set [4] was found to be 24%. In the data set on Rattus norvegicus [6], the inhibition result is “Active”.
As for `O=C(O)C1CN(Cc2ccc(-c3nc4ccc(C5(c6ccccc6)CC5)nc4s3)c(F)c2)C1`, the bioavailability was 34% in data set [7], 41% in data set [15] and 64% in data set [31]. Also, the Efficacy in data set [1] came out at 98%; in data set [29], 50%. In addition, the inhibition in vivo at 0.03 mg/kg in the data set with Rattus norvegicus [8] turned out to be 45%. In addition, the results for the clearance in [9], in [21] and in data set [32] were 1.18 mL/min/kg, 8.33 mL/min/kg and 3 mL/min/kg, respectively. The inhibition in vivo at 0.1 mg/kg in the data set with Rattus norvegicus [10] was determined as 65%. Moreover, the inhibition entry with Rattus norvegicus [11] is “Dose-dependent effect”. Also, the values for the Vd in [12], in data set [22] and in data set [27] were 1.2 L/kg, 2.3 L/kg and 1.8 L/kg, respectively. For the same compound, the half-life was 38 h in data set [13], 24 h in data set [35] and 5.9 h in data set [36]. The outcome in the data set on Rattus norvegicus [14] and in the data set with Rattus norvegicus [33] was Active. Further, the “inhibition (INH)” value in [16] and in [34] was “Not Active” each time. Besides, a half-maximal response in data set [17] (EC50) required 29 nM. In addition, the results for the MRT in data set [18], in data set [23] and in data set [30] were 17 h, 10 h and 4.7 h, respectively. Also, the result (in data set [19]; in data set [26]; with Rattus norvegicus [28]) was inactive. In addition, the Activity result in [20] was “Non-toxic”; in data set [4], 26%; in the data set on Rattus norvegicus [24], “Non-toxic”; with Rattus norvegicus [25], “Non-toxic”.
With `O=C(O)C1CN(Cc2ccc(-c3nc4ncc(Cc5ccccc5)cc4s3)c(F)c2)C1`, the Efficacy in [1] is 75%. In addition, the EC50 is greater than 25000 nM in data set [5] and 1600 nM in data set [2].
For the compound `O=C(O)C1CN(Cc2ccc(-c3nc4ccc(Cc5ccccc5)cc4s3)c(F)c2)C1`, in data set [4], the Activity was 50%. Also, the figures for the EC50 in data set [5] and in data set [2] were 3470 nM and 221 nM, respectively.
`O=C(O)C1CN(Cc2ccc(-c3nc4ccc(C5(c6ccccc6)CC5)cc4s3)c(F)c2)C1` displayed an Efficacy in data set [1] of 93%. The compound also gave an Activity in data set [4] of 56%. Also, the 50% effective concentration (EC50) in [5] turned out to be 4670 nM; in [2], 38 nM.
In turn, `O=C(O)C1CN(Cc2ccc(-c3nc4cnc(Cc5ccccc5)cc4s3)c(F)c2)C1` returned an Efficacy in data set [1] of 77%. The compound further had an Activity in data set [4] of 64%. Besides, the EC50 in data set [5] was determined as 5460 nM; in [2], 3980 nM.
The corresponding values for `O=C(O)C1CN(Cc2ccc(-c3nc4ccc(Cc5ccccc5)nc4s3)c(F)c2)C1` are 92%, 94%, 478 nM and 199 nM.
In turn, `O=C(O)C1CN(Cc2ccc(-c3nc4cc(Cc5ccccc5)ncc4s3)c(F)c2)C1` came in with an Efficacy in data set [1] of 115%. For the same compound, the EC50 in data set [5] was greater than 25000 nM; in data set [2], 429 nM.
Take `C[C@H](c1ccccc1)c1ccc2nc(-c3ccc(CN4CC(C(=O)O)C4)cc3F)sc2n1`: the Efficacy in data set [1] came to 87%. The compound also registered an Activity in data set [4] of 45%. The EC50 in data set [5] was determined as 996 nM; in [2] it was 38 nM.
